# Results published in ChEMBL document CHEMBL3600376, “Antibacterial activity of diketopiperazines isolated from a marine fungus using t-butoxycarbonyl group as a simple tool for purification” (2015).
# Experiments:
# Format in all cases: functional
# Staphylococcus aureus = assay: Antibacterial activity against Staphylococcus aureus ATCC 25923 after 18 hrs by agar diffusion method; details: ATCC 25923, 18 h
# Escherichia coli = assay: Antibacterial activity against Escherichia coli ATCC 25922 after 18 hrs by agar diffusion method; details: ATCC 25922, 18 h
# Bacillus subtilis = assay: Antibacterial activity against Bacillus subtilis NCTC 2116 after 18 hrs by agar diffusion method; details: NCTC 2116, 18 h
MIC (Staphylococcus aureus),MIC (Escherichia coli),MIC (Bacillus subtilis),SMILES
10.2 µg/mL,> 20 µg/mL,8.7 µg/mL,O=C1N[C@@H](Cc2ccc(O)cc2)C(=O)N2CCC[C@@H]12
15.1 µg/mL,> 20 µg/mL,17.2 µg/mL,O=C1N[C@@H](Cc2ccccc2)C(=O)N2CCC[C@@H]12
16.3 µg/mL,> 20 µg/mL,18.2 µg/mL,CC(C)[C@@H]1NC(=O)[C@@H]2CCCN2C1=O
8.9 µg/mL,> 20 µg/mL,6.7 µg/mL,CC(C)(C)OC(=O)n1cc(C[C@@H]2NC(=O)[C@@H]3CCCN3C2=O)c2ccccc21
0.05 µg/mL,0.8 µg/mL,0.03 µg/mL,CC1(C)S[C@@H]2[C@H](NC(=O)[C@H](N)c3ccc(O)cc3)C(=O)N2[C@H]1C(=O)O [AMOXICILLIN]
2.8 µg/mL,16.4 µg/mL,3.3 µg/mL,COc1ccc2c3c(n(C(=O)OC(C)(C)C)c2c1)[C@H](C=C(C)C)N1C(=O)[C@@H]2CCCN2C(=O)[C@@H]1C3
17.1 µg/mL,> 20 µg/mL,15.8 µg/mL,CCC(C)[C@@H]1NC(=O)[C@@H]2CCCN2C1=O (stereo partly specified)
15.6 µg/mL,18.5 µg/mL,16 µg/mL,CC(C)[C@@H]1NC(=O)[C@H]2CCCN2C1=O
18.8 µg/mL,> 20 µg/mL,15.7 µg/mL,CC(C)C[C@@H]1NC(=O)[C@@H]2CCCN2C1=O
2.2 µg/mL,19 µg/mL,2.1 µg/mL,CC(C)=CCc1c(C[C@H]2C(=O)N3CCC[C@H]3C(=O)N2C(=O)OC(C)(C)C)c2ccccc2n1C(=O)OC(C)(C)C

SMILES,MIC (Staphylococcus aureus),MIC (Escherichia coli),MIC (Bacillus subtilis)
CN(C)[C@@H]1C(O)=C(C(N)=O)C(=O)[C@@]2(O)C(O)=C3C(=O)c4c(O)cccc4[C@@](C)(O)[C@H]3C[C@@H]12 [TETRACYCLINE],1.5 µg/mL,3.9 µg/mL,1.2 µg/mL
O=C1N[C@@H](Cc2c[nH]c3ccccc23)C(=O)N2CCC[C@@H]12 [BREVIANAMIDE F],12.6 µg/mL,> 20 µg/mL,11.9 µg/mL
